ChEMBL document CHEMBL6078691, “Modulating Phosphorylation by Proximity-Inducing Modalities for Cancer Therapy” (J Med Chem, 2024)

Columns and labels:
[1] = target: Microtubule-associated protein tau (Homo sapiens, UniProt P10636); test: Inhibition of tau phosphorylation (unknown origin)
[2] = target: T1, Epidermal growth factor receptor (Homo sapiens, UniProt P00533); test: Inhibition of EGFR (unknown origin) at 0.5 uM relative to control
[3] = target: T1, Epidermal growth factor receptor; test: Inhibition of EGFR (unknown origin)

Microtubule-associated protein tau, sequence (P10636 whole entry): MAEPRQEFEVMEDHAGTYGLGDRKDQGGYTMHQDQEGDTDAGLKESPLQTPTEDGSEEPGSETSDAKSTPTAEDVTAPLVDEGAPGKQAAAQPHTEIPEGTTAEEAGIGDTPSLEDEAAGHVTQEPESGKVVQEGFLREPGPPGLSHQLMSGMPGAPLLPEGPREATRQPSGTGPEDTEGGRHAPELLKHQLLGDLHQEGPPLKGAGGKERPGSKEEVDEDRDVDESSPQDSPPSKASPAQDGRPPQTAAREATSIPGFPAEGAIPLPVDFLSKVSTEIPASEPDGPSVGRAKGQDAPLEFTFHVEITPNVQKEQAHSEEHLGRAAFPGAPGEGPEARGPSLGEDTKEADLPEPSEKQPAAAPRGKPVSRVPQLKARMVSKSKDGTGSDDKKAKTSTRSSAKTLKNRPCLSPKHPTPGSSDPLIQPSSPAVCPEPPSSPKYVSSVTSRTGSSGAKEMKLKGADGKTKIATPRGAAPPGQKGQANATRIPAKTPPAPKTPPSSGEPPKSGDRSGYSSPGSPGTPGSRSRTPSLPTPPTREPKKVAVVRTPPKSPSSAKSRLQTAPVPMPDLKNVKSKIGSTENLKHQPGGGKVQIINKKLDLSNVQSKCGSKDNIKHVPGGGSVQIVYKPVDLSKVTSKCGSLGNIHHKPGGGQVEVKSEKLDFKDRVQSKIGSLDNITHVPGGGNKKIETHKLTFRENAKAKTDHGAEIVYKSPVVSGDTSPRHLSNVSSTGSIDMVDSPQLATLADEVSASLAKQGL
T1 sequence (P00533 whole entry): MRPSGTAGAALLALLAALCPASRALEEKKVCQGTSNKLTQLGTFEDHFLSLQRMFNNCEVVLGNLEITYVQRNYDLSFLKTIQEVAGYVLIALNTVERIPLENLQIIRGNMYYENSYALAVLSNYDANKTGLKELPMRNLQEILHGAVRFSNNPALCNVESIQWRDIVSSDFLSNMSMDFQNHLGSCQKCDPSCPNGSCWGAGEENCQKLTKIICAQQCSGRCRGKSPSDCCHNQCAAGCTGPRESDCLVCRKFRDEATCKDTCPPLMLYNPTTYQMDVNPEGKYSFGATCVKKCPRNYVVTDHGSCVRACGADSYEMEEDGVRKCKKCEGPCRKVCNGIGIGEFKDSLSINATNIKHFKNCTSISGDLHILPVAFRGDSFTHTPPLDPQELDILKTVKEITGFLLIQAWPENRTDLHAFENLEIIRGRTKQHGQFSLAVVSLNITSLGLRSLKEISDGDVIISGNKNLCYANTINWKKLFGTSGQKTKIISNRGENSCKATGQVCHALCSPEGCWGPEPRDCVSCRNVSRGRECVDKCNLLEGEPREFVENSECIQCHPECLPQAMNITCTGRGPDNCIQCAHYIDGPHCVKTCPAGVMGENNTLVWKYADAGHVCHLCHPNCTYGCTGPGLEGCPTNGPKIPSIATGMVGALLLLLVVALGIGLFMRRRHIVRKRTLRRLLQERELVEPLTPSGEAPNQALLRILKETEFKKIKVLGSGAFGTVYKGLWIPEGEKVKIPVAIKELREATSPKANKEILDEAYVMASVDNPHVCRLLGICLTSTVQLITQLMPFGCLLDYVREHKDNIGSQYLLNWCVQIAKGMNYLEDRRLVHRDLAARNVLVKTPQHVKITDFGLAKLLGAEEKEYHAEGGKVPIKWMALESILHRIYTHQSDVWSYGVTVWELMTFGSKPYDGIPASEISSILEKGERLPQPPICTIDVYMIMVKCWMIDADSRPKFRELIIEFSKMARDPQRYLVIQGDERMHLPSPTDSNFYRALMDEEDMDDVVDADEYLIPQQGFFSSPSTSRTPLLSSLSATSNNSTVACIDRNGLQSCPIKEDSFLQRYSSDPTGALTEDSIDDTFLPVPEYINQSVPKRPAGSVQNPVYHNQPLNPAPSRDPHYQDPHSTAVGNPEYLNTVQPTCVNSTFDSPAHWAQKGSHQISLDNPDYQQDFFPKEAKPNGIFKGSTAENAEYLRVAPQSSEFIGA

| IC50 [1] | Compound | also measured |
| --- | --- | --- |
| > 20000 nM | H-YQQYQDATADEQGGSGSKKVAVVRTPPKSPRRRRRRRR-OH | – |
| – | CC[C@H](C(=O)N1CCCC[C@@H]1C(=O)O[C@H](CCc1ccc(OC)c(OC)c1)c1cccc(OCC(=O)NCCOCCOCCN(C)C/C=C/C(=O)Nc2cc3c(Nc4ccc(F)c(Cl)c4)ncnc3cc2OC)c1)c1cc(OC)c(OC)c(OC)c1 | inhibition [2]: 90% |
| – | CC[C@H](C(=O)N1CCCC[C@@H]1C(=O)O[C@H](CCc1ccc(OC)c(OC)c1)c1cccc(OCC(=O)NCCC(=O)N2CCN(CCCOc3cc4c(Nc5ccc(F)c(Cl)c5)ncnc4cc3OC)CC2)c1)c1cc(OC)c(OC)c(OC)c1 | IC50 [3]: 13 nM |
| 2000 nM | CC[C@H](C)[C@H](NC(=O)[C@H](CCSC)NC(=O)[C@H](Cc1c[nH]c2ccccc12)NC(=O)[C@@H](NC(=O)[C@@H](N)CC(=O)O)C(C)C)C(=O)N[C@@H](CC(N)=O)C(=O)N[C@@H](CCCCN)C(=O)N[C@@H](CCCCN)C(=O)N[C@@H](CCCNC(=N)N)C(=O)N[C@@H](CCCCN)C(=O)NCCOCCOCCOCCOCCOCCOCCN[C@@H](CCCNC(=N)N)C(=O)N[C@H](C(=O)N1CCC[C@H]1C(=O)N1CCC[C@H]1C(=O)N[C@@H](CCCCN)C(=O)N[C@@H](CO)C(=O)N1CCC[C@H]1C(=O)N[C@@H](CCCNC(=N)N)C(=O)N[C@@H](CCCNC(=N)N)C(=O)N[C@@H](CCCNC(=N)N)C(=O)N[C@@H](CCCNC(=N)N)C(=O)N[C@@H](CCCNC(=N)N)C(=O)N[C@@H](CCCNC(=N)N)C(=O)N[C@@H](CCCNC(=N)N)C(=O)N[C@@H](CCCNC(=N)N)C(=O)O)[C@@H](C)O | – |
